{"source": "patent US20060084697A1", "about": "“Pi3k antagonists as radiosensitizers” (priority 2002, published 2006)", "key": {"HUVEC cells [1]": {"system": "HUVEC cells", "experiment": "Apoptotic nuclei in HUVEC, H&E staining", "assay_type": "cell-based, human", "settings": "wortmannin 4 nM or LY294002 2 μM, 24 hours", "method": "To determine whether PI3K antagonists enhance the activities of intrinsic cell death mechanisms induced by irradiation, apoptosis in HUVEC cells was studied following PI3K inhibition. HUVEC cells were treated with wortmannin (4 nM) or with LY294002 (2 μM) as described in Example 2. Cells were treated 30 minutes later with 3 Gy of ionizing radiation. Cultures were stained 24 hours later with hematoxylin and eosin (H&E) to reveal apoptotic nuclei. Stained cells were then examined by light microscopy. For each treatment group, four high power fields (40× objective) were examined, and both the number of cells with apoptotic nuclei and the total number of cells were determined. From these numbers, the percentage of apoptotic cells for each group was calculated."}, "GL261 glioma tumors": {"system": "GL261 glioma tumors", "experiment": "Power Doppler sonography of tumor blood flow, GL261 hind limb tumors", "assay_type": "in vivo, C57BL/6J mice", "source_text": "Power Doppler sonography was used to study the response of tumor blood vessels to ionizing radiation. This method utilizes amplitude to measure blood flow in microvasculature. Tumors were imaged with a 10-5 MHz ENTOS® linear probe (Advanced Technology Laboratories, Inc., Bothell, Wash., United States of America) attached to an HDI® 5000 diagnostic ultrasound system (Advanced Technology Laboratories, Inc.). Power Doppler sonography images were obtained with the power gain set to 82%. Care was taken to minimize motion artifact. A 20-frame cineloop sweep of the entire tumor was obtained with the probe perpendicular to the long axis of the lower extremity along the entire length of the tumor. The images were analyzed using HDI® software (Advanced Technology Laboratories, Inc). This software allows direct evaluation of Power Doppler cineloop raw data. Color area was recorded for the entire tumor. Five mice were included in each treatment group. Values for color area were averaged for each tumor set and treated groups were compared to controls using the unpaired student t-test. GL261 glioma tumors were implanted in the hind limb of C57BL/6J mice as described in […] et al., 1998. […] Power Doppler analysis of tumor blood flow was measured on day 0, day 3, and day 7 after radiation treatment. […]"}, "HUVEC cells [2]": {"system": "HUVEC cells", "experiment": "Clonogenic survival analysis of HUVEC", "assay_type": "cell-based, human", "procedure": "The ability of PI3K antagonist to suppress the clonogenic potential of HUVEC cells treated with radiation was assayed by clonogenic survival analysis. The ability of HUVEC cells treated with LY294002 30 minutes prior to irradiation to form colonies was compared to that of HUVEC cells treated with either radiation or LY294002 alone, and also to that of untreated HUVEC cells. […] Briefly, groups of three HUVEC culture plates were treated at each of four radiation dose levels: 2, 4, 6, and 8 Gy, either with or without prior treatment with PI3K antagonists as described in Example 2. After treatment with radiation and/or antagonists, cells were trypsinized, counted by hemocytometer, and subcultured into fresh medium. After 14 days, the cells were fixed with cold methanol and stained with 1% methylene blue. Colonies with greater than 50 cells were counted and the surviving fraction was determined.\nTo determine whether broad spectrum RTK inhibition enhances the cytotoxic effects of radiation on vascular endothelium, SU11248 was added 30 minutes prior to irradiation. HUVECs were treated with vehicle control, and either 100 nM SU11248 orvehicle combined with 6 Gy."}, "GL261 tumors": {"system": "GL261 tumors", "experiment": "Tumor volume assessment, growth delay, GL261", "assay_type": "in vivo, C57BL/6 mice", "method": "GL261 tumors were generated by subcutaneous injection of 10^6 cells into the right thighs of C57BL/6 mice as described in Example 6. […] An equal number of large and intermediate size tumors were present in each group. GL261 tumor-bearing mice were treated with 24 Gy ionizing radiation administered in 8 fractionated doses over 10 days. LY294002 was administered at 3 mg/kg by intraperitoneal injection 15 minutes prior to irradiation on days 1, 3, 5, and 7 of radiation therapy. Control mice received identical doses and schedules of either LY294002 alone or radiation alone. Twice each week, tumor volumes were measured using skin calipers as previously described (Grugel et al., 1995; […] et al., 1998; Staba et al., 1998). Briefly, tumor volumes were calculated using the formula: a×b×c/2, where a=maximal width dimension, b=maximal length dimension, and c=maximal depth dimension, which was derived from the formula for calculating the volume of an ellipsoid (πd^3/6). Data were calculated as the percent of original (day 0) tumor volume and graphed as fractional tumor volume plus or minus one standard deviation for each treatment group. Growth delay was defined as the number of days required for tumors to reach a volume of 1 cm^3. Untreated control tumors reached 1 cm^3 at 7 days."}, "[3]": {"system": "GL261 tumor blood vessels", "experiment": "Tumor vascular window model, vascular length density, GL261", "assay_type": "in vivo, mouse", "method": "Penicillin/streptomycin solution (200 μl; available from GIBCO™ Invitrogen Corporation of Carlsbad, Calif., United States of America) was injected into the hind limb of the mouse prior to preparation of the window chamber. The dorsal skin fold window chamber (Leunig et al., 1992) was prepared using a 3-gram plastic frame, which was applied to the skin of a test animal and remained attached for the duration of the study. To prepare a test animal for application of the plastic frame, the dorsal midline was found along the animal's back, and a clip was placed to hold the skin in position. […] Scanned slides were analyzed using IMAGE-PRO® software (Media Cybernetics, Silver Spring, Md., United States of America) as described below. […] Tumor blood vessels were quantified using IMAGE-PRO® software, which quantified the vascular length density of blood vessel within the microscopic field. The mean vascular length density and the standard error of the mean were calculated for each treatment group. The mean and 95% confidence intervals of vascular length density for each treatment group were calculated and variance was analyzed by the General Linear Models and Bonferroni t test. […] The mean vascular length densities of treatment group were determined at 0 hours, which was the time at which the radiation treatments were commenced. […]"}}}
{"smiles": "O=c1cc(N2CCOCC2)oc2c(-c3ccccc3)cccc12", "note": "[LY294002, 2-(4-Morpholinyl)-8-phenyl-4H-1-benzopyran-4-one]", "values": [{"measurement": "apoptotic nuclei, % of cells", "setting": "HUVEC cells [1]; HUVEC pretreated 30 minutes before 3 Gy", "result": 16, "unit": "%"}, {"measurement": "apoptotic cells", "setting": "HUVEC cells [1]; unirradiated HUVEC", "result": 2, "unit": "%"}, {"measurement": "tumor blood flow", "setting": "GL261 glioma tumors; LY294002 alone", "result": "unchanged"}, {"measurement": "tumor blood flow", "setting": "GL261 glioma tumors; LY294002 prior to 3 Gy irradiation", "result": "obliterated"}, {"measurement": "radiation-induced cytotoxicity compared to radiation alone", "setting": "HUVEC cells [2]; HUVEC treated 30 minutes prior to 2, 4, 6, 8 Gy, p<0.05", "result": "significantly enhanced"}, {"measurement": "plating efficiency, % of untreated control cells", "setting": "HUVEC cells [2]; unirradiated HUVEC treated for 30 minutes", "result": 70, "unit": "%"}, {"measurement": "growth delay: days for tumors to reach 1 cm^3", "setting": "GL261 tumors; 3 mg/kg i.p. 15 minutes prior to irradiation on days 1, 3, 5, 7, 24 Gy in 8 fractions", "result": "> 15", "unit": "days"}, {"measurement": "growth delay: days for tumors to reach 1 cm^3", "setting": "GL261 tumors; 3 mg/kg i.p. on days 1, 3, 5, 7, alone, untreated 7 days", "result": 9, "unit": "days"}, {"measurement": "mean vascular length density at 96 hours, % of 0 hour", "setting": "[3]; 3 mg/Kg intraperitoneally 15 minutes prior to 3 Gy", "result": 5, "unit": "%"}, {"measurement": "mean vascular length density at 96 hours, % of 0 hour", "setting": "[3]; 3 mg/Kg intraperitoneally, no radiation, p=0.41", "result": 85, "unit": "%"}]}
